For experiment [1], the system named is MLKL phosphorylation in HT29-L23 human colorectal adenocarcinoma cells. Nature of the experiment: MLKL Phosphorylation High-Content Assay. Type of experiment: cell-based. The settings on record: Homo sapiens. In short, it runs like this:
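Cells incubated six hours at 37° C., then phospho-MLKL (S358) immunostained overnight at 4° C. and imaged by high-content microscopy. Phosphorylation quantified as mean circ-ring average intensity ratio; IC50 and Ymax from 4-parameter logistic fits.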

The target in experiment [2] is T1, His-GST-TVMV-hRIPK1(1-324) (Homo sapiens, UniProt Q13546).
T1 construct: The coding region of human RIPK1(1-324) flanked by NdeI site at 5′ end; made in house; host or cells: Spodoptera frugiperda (Sf9) insect cells, baculovirus
T1 sequence (Q13546 1-324): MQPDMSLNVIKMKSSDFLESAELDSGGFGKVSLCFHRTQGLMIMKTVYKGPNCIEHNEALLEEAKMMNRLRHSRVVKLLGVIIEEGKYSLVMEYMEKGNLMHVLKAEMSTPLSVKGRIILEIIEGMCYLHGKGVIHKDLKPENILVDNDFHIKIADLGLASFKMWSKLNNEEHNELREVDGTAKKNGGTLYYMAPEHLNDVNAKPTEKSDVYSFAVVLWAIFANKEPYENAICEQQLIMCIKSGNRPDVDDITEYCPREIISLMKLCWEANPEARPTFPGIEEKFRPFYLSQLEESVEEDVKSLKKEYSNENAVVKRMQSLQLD
Briefly: RIPK1 HTRF Binding Assay.

The mark [3] stands for this setting: x marks IC50 class <20 nM, read-out: pMLKL cell activity <20 nM.
The mark [4] stands for this setting: x marks IC50 class <20 nM, read-out: RIPK1 HTRF binding <20 nM.
Where [5] appears, read: x marks IC50 class 20-200 nM, read-out: pMLKL cell activity 20-200 nM.
Setting [6] is: x marks IC50 class >200 nM, read-out: pMLKL cell activity >200 nM.
Where [7] appears, read: x marks IC50 class 20-200 nM, read-out: RIPK1 HTRF binding 20-200 nM.

pIC50: −log10 of the molar value. Where two headings read alike, the source gives them in different places.

Regarding `COc1nc(C)c(-c2ccn3nc(N)nc3c2)cc1C(=O)NCc1ccccc1OC1CCOC1` (stereo not drawn) [Example 6, 5-{2-Amino-[1,2,4]triazolo[1,5-a]pyridin-7-yl}-2-methoxy-6-methyl-N-{[2-(oxolan-3-yloxy)phenyl]methyl}pyridine-3-carboxamide], the pIC50 in experiment [1] (setting [3]) and in experiment [2] (setting [4]) was more than 7.70 each time.
`COc1ncc(-c2ccn3nc(N)nc3c2)cc1C(=O)NCc1ccccc1OC1CCOC1` (stereo not drawn) [Example 140, 5-{2-amino-[1,2,4]triazolo[1,5-a]pyridin-7-yl}-2-methoxy-N-{[2-(oxolan-3-yloxy)phenyl]methyl}pyridine-3-carboxamide]: the pIC50 in experiment [1] (setting [5]) is 6.70 to 7.70; in experiment [2] (setting [4]) it was more than 7.70.
With `Cc1ncc(-c2ccn3nc(N)nc3c2)cc1C(=O)NCc1ccc(F)cc1OCC1CC1` [Example 24, 5-{2-Amino-[1,2,4]triazolo[1,5-a]pyridin-7-yl}-N-{[2-(cyclopropylmethoxy)-4-fluorophenyl]methyl}-2-methylpyridine-3-carboxamide], the pIC50 was less than 6.70 in experiment [1] (setting [6]) and 6.70 to 7.70 in experiment [2] (setting [7]).
Regarding `COc1ncc(-c2ccn3nc(N)nc3c2)cc1C(=O)NCc1cccnc1OC1CCCC1` [Example 135, 5-{2-amino-[1,2,4]triazolo[1,5-a]pyridin-7-yl}-N-{[2-(cyclopentyloxy)pyridin-3-yl]methyl}-2-methoxypyridine-3-carboxamide], the pIC50 in experiment [1] (setting [3]) and in experiment [2] (setting [4]) was more than 7.70 throughout.
On to `COc1nc(C)c(-c2ccn3nc(N)nc3c2)cc1C(=O)NCc1cccc(OC(F)(F)F)c1` [Example 210, 5-{2-amino-[1,2,4]triazolo[1,5-a]pyridin-7-yl}-2-methoxy-6-methyl-N-{[3-(trifluoromethoxy)phenyl]methyl}pyridine-3-carboxamide], for which the figures for the pIC50 in experiment [1] (setting [5]) and in experiment [2] (setting [4]) were 6.70 to 7.70 and more than 7.70, respectively.
As to `CC(CCNC(=O)c1cc(-c2ccn3nc(N)nc3c2)cnc1N(C)C)c1ccccc1` (stereo not drawn) [Example 64, 5-{2-Amino-[1,2,4]triazolo[1,5-a]pyridin-7-yl}-2-(dimethylamino)-N-(3-phenylbutyl)pyridine-3-carboxamide], the pIC50 in experiment [1] (setting [5]) and in experiment [2] (setting [7]) was 6.70 to 7.70 throughout.
As to `[2H]C([2H])(NC(=O)c1cc(-c2ccn3nc(N)nc3c2)c(C)nc1C)c1cc(C(F)(F)F)ccc1F` [Example 288, 5-(2-amino-[1,2,4]triazolo[1,5-a]pyridin-7-yl)-N-((2-fluoro-5-(trifluoromethyl)phenyl)methyl-d2)-2,6-dimethylnicotinamide], the pIC50 is 6.70 to 7.70 in experiment [1] (setting [5]) and more than 7.70 in experiment [2] (setting [4]).
Regarding `[2H]C([2H])([2H])Oc1nc(C)c(-c2ccn3nc(N)nc3c2)cc1C(=O)NC(C)c1cc(OC(F)(F)F)ccc1F` (single isomer, unassigned) [Example 97-1, 5-{2-amino-[1,2,4]triazolo[1,5-a]pyridin-7-yl}-N-{1-[2-fluoro-5-(trifluoromethoxy)phenyl]ethyl}-2-(deutero)methoxy-6-methylpyridine-3-carboxamide], the pIC50 in experiment [1] (setting [5]) and in experiment [2] (setting [7]) was 6.70 to 7.70 each time.
Regarding `COc1nc(C)c(-c2ccn3nc(N)nc3c2)cc1C(=O)NCc1cc(F)cc(F)c1OC1CCCOC1` (stereo not drawn) [Example 350, 5-(2-amino-[1,2,4]triazolo[1,5-a]pyridin-7-yl)-N-(3,5-difluoro-2-((tetrahydro-2H-pyran-3-yl)oxy)benzyl)-2-methoxy-6-methylnicotinamide], the pIC50 in experiment [1] (setting [3]) and in experiment [2] (setting [4]) was more than 7.70 throughout.
Regarding `Cc1ncc(-c2ccn3nc(N)nc3c2)cc1C(=O)NCc1ccccc1OC1CCCCC1` [Example 239, 5-{2-amino-[1,2,4]triazolo[1,5-a]pyridin-7-yl}-N-{[2-(cyclohexyloxy)phenyl]methyl}-2-methylpyridine-3-carboxamide], the pIC50 in experiment [1] (setting [3]) and in experiment [2] (setting [4]) was more than 7.70 throughout.
On to `COc1nc(C)c(-c2ccn3nc(N)nc3c2)cc1C(=O)NCc1ccccc1OCC1CC1` [Example 221, 5-{2-amino-[1,2,4]triazolo[1,5-a]pyridin-7-yl}-N-{[2-(cyclopropylmethoxy)phenyl]methyl}-2-methoxy-6-methylpyridine-3-carboxamide], for which the pIC50 in experiment [1] (setting [3]) and in experiment [2] (setting [4]) was more than 7.70 in each case.
For `[2H]C([2H])([2H])Oc1ncc(-c2ccn3nc(N)nc3c2)cc1C(=O)NC([2H])([2H])c1cc(C(F)(F)F)ccc1F` [Example 284, 5-(2-amino-[1,2,4]triazolo[1,5-a]pyridin-7-yl)-N-((2-fluoro-5-(trifluoromethyl)phenyl)methyl-d2)-2-(methoxy-d3)nicotinamide], the pIC50 was 6.70 to 7.70 in experiment [1] (setting [5]) and more than 7.70 in experiment [2] (setting [4]).
The corresponding values for `COc1nc(C)c(-c2ccn3nc(N)nc3c2)cc1C(=O)NCc1cccnc1OCC1CCC1` [Example 209, 5-{2-amino-[1,2,4]triazolo[1,5-a]pyridin-7-yl}-N-{[2-(cyclobutylmethoxy)pyridin-3-yl]methyl}-2-methoxy-6-methylpyridine-3-carboxamide] are 6.70 to 7.70 and more than 7.70.
As to `Cc1nc(C)c(-c2ccn3nc(N)nc3c2)cc1C(=O)NCc1cc(F)ccc1OCC1CCCC1` [Example 190, 5-{2-amino-[1,2,4]triazolo[1,5-a]pyridin-7-yl}-N-{[2-(cyclopentylmethoxy)-5-fluorophenyl]methyl}-2,6-dimethylpyridine-3-carboxamide], the pIC50 in experiment [1] (setting [3]) and in experiment [2] (setting [4]) was more than 7.70 throughout.
As for `Nc1nc2cc(-c3cnc(C4CC4)c(C(=O)NCc4cccc(OC(F)(F)F)c4)c3)ccn2n1` [Example 19, 5-{2-Amino-[1,2,4]triazolo[1,5-a]pyridin-7-yl}-2-cyclopropyl-N-{[3-(trifluoromethoxy)phenyl]methyl}pyridine-3-carboxamide], the pIC50 in experiment [1] (setting [5]) and in experiment [2] (setting [7]) was 6.70 to 7.70 each time.
With `COc1ncc(-c2ccn3nc(N)nc3c2)cc1C(=O)NCc1c(F)cccc1OCC1CC1` [Example 147, 5-{2-amino-[1,2,4]triazolo[1,5-a]pyridin-7-yl}-N-{[2-(cyclopropylmethoxy)-6-fluorophenyl]methyl}-2-methoxypyridine-3-carboxamide], the pIC50 in experiment [1] (setting [3]) and in experiment [2] (setting [4]) was more than 7.70 in each case.
As for `[2H]C([2H])([2H])Oc1ncc(-c2ccn3nc(N)nc3c2)cc1C(=O)NCc1cc(C(F)(F)F)ccc1F` [Example 91, 5-{2-amino-[1,2,4]triazolo[1,5-a]pyridin-7-yl}-N-{[2-fluoro-5-(trifluoromethyl)phenyl]methyl}-2-(deutero)methoxypyridine-3-carboxamide], the pIC50 in experiment [1] (setting [5]) and in experiment [2] (setting [7]) was 6.70 to 7.70 each time.
In the case of `Cc1ncc(C(=O)NCc2cccnc2OCC2CCCC2)cc1-c1ccn2nc(N)nc2c1` [Example 258, 5-{2-amino-[1,2,4]triazolo[1,5-a]pyridin-7-yl}-N-{[2-(cyclopentylmethoxy)pyridin-3-yl]methyl}-6-methylpyridine-3-carboxamide], the pIC50 in experiment [1] (setting [6]) was less than 6.70; in experiment [2] (setting [4]) it was more than 7.70.
With `Cc1ncc(-c2ccn3nc(N)nc3c2)cc1C(=O)NCC[C@@H](O)c1ccc(Cl)cc1` [Example 224], the results for the pIC50 in experiment [1] (setting [5]) and in experiment [2] (setting [4]) were 6.70 to 7.70 and more than 7.70, respectively.
As to `[2H]C([2H])(NC(=O)c1cc(-c2ccn3nc(N)nc3c2)cnc1C)c1cc(C(F)(F)F)ccc1F` [Example 307, 5-(2-amino-[1,2,4]triazolo[1,5-a]pyridin-7-yl)-N-((2-fluoro-5-(trifluoromethyl)phenyl)methyl-H2)-2-methylnicotinamide], the results for the pIC50 in experiment [1] (setting [5]) and in experiment [2] (setting [4]) were 6.70 to 7.70 and more than 7.70, respectively.
The corresponding values for `COc1nc(C)c(-c2ccn3nc(N)nc3c2)cc1C(=O)NCc1cc(F)ccc1OC(F)(F)F` [Example 329, 5-(2-amino-[1,2,4]triazolo[1,5-a]pyridin-7-yl)-N-(5-fluoro-2-(trifluoromethoxy)benzyl)-2-methoxy-6-methylnicotinamide] are 6.70 to 7.70 and more than 7.70.
For the compound `COc1ncc(-c2ccn3nc(N)nc3c2)cc1C(=O)Nc1cnn(Cc2ccccc2)c1` [Example 84, 5-{2-Amino-[1,2,4]triazolo[1,5-a]pyridin-7-yl}-N-(1-benzyl-1H-pyrazol-4-yl)-2-methoxypyridine-3-carboxamide], the pIC50 in experiment [1] (setting [5]) and in experiment [2] (setting [7]) was 6.70 to 7.70 each time.
With `CCOc1ncc(-c2ccn3nc(N)nc3c2)cc1C(=O)NCCC(C)c1ccccc1` (stereo not drawn) [Example 280, 5-{2-amino-[1,2,4]triazolo[1,5-a]pyridin-7-yl}-2-ethoxy-N-(3-phenylbutyl)pyridine-3-carboxamide], the pIC50 was 6.70 to 7.70 in experiment [1] (setting [5]) and more than 7.70 in experiment [2] (setting [4]).
The corresponding values for `C[C@@H](NC(=O)c1cnc(Cl)c(-c2ccn3nc(N)nc3c2)c1)c1ccccc1OC(F)(F)F` [Example 370, (R)-5-(2-amino-[1,2,4]triazolo[1,5-a]pyridin-7-yl)-6-chloro-N-(1-(2-(trifluoromethoxy)phenyl)ethyl)nicotinamide] are 6.70 to 7.70 and more than 7.70.
